The subject of data set [1] is IFNβ mRNA in RAW264.7 cells. In words: IFNβ mRNA Q-PCR, RAW264.7 cells. Format: cell-based, mouse. The note with it: STING ligands 10 μg/ml, inhibitor 10 μM, 16 hours. The method, then: (§1) Total RNA was extracted using QIAGEN RNeasy Plus Kit according to the manufacturer's instructions. First-strand cDNA was synthesized from 1 μg of RNA using the iScript cDNA Synthesis kit (#1708890, Bio-Rad). Briefly, 20 μl reactions were prepared by combining 4 μl iScript Select reaction mix, 2 μl gene-specific enhancer solution, 1 μl reverse transcriptase, 1 μl gene-specific assay pool (20×, 2 μM), and 12 μl RNA diluted in RNase-free water. Quantitative real-time PCR was carried out using synthesized cDNA, primers, and SsoFast EvaGreen Supermix (#172-5204, Bio-Rad). The expression of target genes was calculated using the ddCt method relative to the expression of a house-keeping gene, β-actin. Data shown are the relative quantity (RQ), with RQ of the control cells set to one.

The test system of data set [2] is iBMDMs. In words: Cell viability assay (CCK-8), iBMDMs. The class given is cell-based, mouse. The following applies: 3′3′-cGAMP 10 μg/ml, ALK inhibitor 10 μM, 16 hours. How it is done: (§2) Cells were seeded into 96-well plates and incubated with the indicated treatments. Subsequently, 100 μl fresh medium was added to cells containing 10 μl Cell Counting Kit-8 (CCK-8) solutions (Dojindo Laboratories) and incubated for 1 h (37° C., 5% CO2). Absorbance at 450 nm was measured using a microplate reader (Tecan).

For data set [3], the system named is STING signaling (TBK1, IRF3, p65 phosphorylation) in J774A.1 cells. Kind of data set: Western blot of STING pathway protein phosphorylation, J774A.1. Format: cell-based, mouse. The following applies: 10 μM. How it is done:
For immunoblotting, cells were lysed in Cell Lysis Buffer (#9803, Cell Signaling Technology) with protease inhibitor cocktail (Promega), phosphatase inhibitor cocktail (Sigma), and 1 mM Na3VO4 (70). Cleared lysates were resolved by SDS-PAGE (#3450124, Bio-Rad) and then transferred onto PVDF membranes (#1704273, Bio-Rad). The membranes were blocked with Tris-buffered saline Tween 20 (TBST) containing 5% skim milk for 1 h at room temperature and then incubated with the indicated primary antibodies (1:1000-1:5000) overnight at 4° C. After being washed with TBST, the membranes were incubated with an HRP-linked anti-mouse IgG secondary antibody (#7076, Cell Signaling Technology) or HRP-linked anti-rabbit IgG secondary antibody (#7074, Cell Signaling Technology) for 1 h at room temperature. The membranes were washed three times in TBST and then visualized and analyzed with a ChemiDoc Touch Imaging System (#1708370, Bio-Rad). The intensities of bands were analyzed with Image Lab software.

Data set [4] has as its target T1, interaction between ALK and EGFR (Homo sapiens, UniProt P00533+Q9UM73).
T1 construct: endogenous in cells; host or cells: THP1 cells
Kind of data set: IP analysis of the interaction between ALK and EGFR, THP1. Format: cell-based. The following applies: 3′3′-cGAMP or c-di-AMP 10 μg/ml, 16 hours, 10 μM. The method, then: For immunoprecipitation, cells were lysed at 4° C. in ice-cold modified radioimmunoprecipitation lysis buffer (#9806, Cell Signaling Technology) and cell lysates were cleared by centrifugation (12,000 g, 10 min). Concentrations of proteins in the supernatant were determined by bicinchoninic acid assay. Prior to immunoprecipitation, samples containing equal amounts of proteins were pre-cleared with Protein A/G agarose/sepharose beads (#20423, Thermo Fisher Scientific Inc.) (4° C., 3 h) and subsequently incubated with various irrelevant IgG or anti-ALK (#ab190934, Abcam) or anti-EGFR antibodies (#2232S, Cell Signaling Technology) in the presence of Protein A/G agarose/sepharose beads overnight at 4° C. with gentle shaking. Following incubation, agarose/sepharose beads were washed extensively with PBS and proteins were eluted by boiling in 2× sodium dodecyl sulfate (SDS) sample buffer before SDS-PAGE electrophoresis.

Data set [5] deals with CLP-induced polymicrobial sepsis in C57BL/6J mice. In words: CLP model of polymicrobial sepsis. Format: in vivo, mouse. The method, then:
sepsis was induced in male or female C57BL/6J mice (eight- to 10-weeks old, 22 to 26 g) using a surgical procedure as previously described (68). Briefly, anesthesia was induced with ketamine (80-100 mg/kg/i.p.) and xylazine (10-12.5 mg/kg/i.p.). A small midline abdominal incision was made and the cecum was exteriorized and ligated with 4-0 silk immediately distal to the ileocecal valve without causing intestinal obstruction. The cecum was then punctured twice with a 17-27-gauge needle. The abdomen was closed in two layers and mice were injected subcutaneously with 1 ml Ringer's solution including analgesia (0.05 mg/kg buprenorphine). […]
Biochemical measurements of tissue enzymes (CK, AMYL, BUN, and ALT) in serum were performed using the IDEXX Catalyst Dx Chemistry Analyzer according to the manufacturer's protocol.
Tissues were embedded in optimum cutting temperature cryomedium (Sakura Finetek, Zoeterwoude, the Netherlands) and cut into 4 μm sections. The deparaffinized sections were then stained using the standard H&E method. The stained slides were observed using an EVOS FL Auto Cell Imaging System (Invitrogen), five fields per section and three sections per sample.

For data set [6], the system named is STING activation (IFNβ release) in pPBMCs. In words: IFNβ release ELISA, primary peripheral blood mononuclear cells (pPBMCs). Format: cell-based. The note with it: human pPBMCs; 3′3′-cGAMP 10 μg/ml, 16 hours; compound 10 μM. How it is done: (§3) Macrophages or monocytes were treated with 3′3′-cGAMP (10 μg/ml, Invitrogen) for 16 hours in the absence or presence of one compound (10 μM) from the Target-selective Inhibitory Library (#L3500, Selleck Chemicals). Commercially available enzyme-linked immunosorbent assay (ELISA) kits were used to measure the concentrations of mouse IFNβ (Thermo Fisher Scientific) or human IFNβ (Thermo Fisher Scientific) in culture medium according to the manufacturer's instructions.
A general note: ELISA stands for enzyme-linked immunosorbent assay.

The subject of data set [7] is STING activation (IFNβ release) in THP1 cells. In words: IFNβ release ELISA, THP1 cells. Format: cell-based, human. The following applies: STING ligands 10 μg/ml, inhibitor 10 μM, 16 hours. How it is done:
as §3

The test system of data set [8] is IFNβ mRNA in pPMs. Kind of data set: IFNβ mRNA Q-PCR, pPMs. The following applies: STING ligands 10 μg/ml, inhibitor 10 μM, 16 hours. The class given is cell-based, mouse. The method, then:
as §1

The subject of data set [9] is THP1 cells. In words: Cell viability assay (CCK-8), THP1. The class given is cell-based, human. The following applies: 3′3′-cGAMP 10 μg/ml, ALK inhibitor 10 μM, 16 hours. The method, then:
as §2

The test system of data set [10] is IFNβ mRNA in J774A.1 cells. Kind of data set: IFNβ mRNA Q-PCR, J774A.1 cells. Format: cell-based, mouse. The following applies: STING ligands 10 μg/ml, inhibitor 10 μM, 16 hours. How it is done: as §1
The test system of data set [11] is pPMs. In words: Cell viability assay (CCK-8), pPMs. Format: cell-based, mouse. The note with it: 3′3′-cGAMP 10 μg/ml, ALK inhibitor 10 μM, 16 hours. The method, then: as §2

Entries after “also recorded” stand apart in the source; their conditions may differ.

T1 sequence (Q9UM73 19-1620): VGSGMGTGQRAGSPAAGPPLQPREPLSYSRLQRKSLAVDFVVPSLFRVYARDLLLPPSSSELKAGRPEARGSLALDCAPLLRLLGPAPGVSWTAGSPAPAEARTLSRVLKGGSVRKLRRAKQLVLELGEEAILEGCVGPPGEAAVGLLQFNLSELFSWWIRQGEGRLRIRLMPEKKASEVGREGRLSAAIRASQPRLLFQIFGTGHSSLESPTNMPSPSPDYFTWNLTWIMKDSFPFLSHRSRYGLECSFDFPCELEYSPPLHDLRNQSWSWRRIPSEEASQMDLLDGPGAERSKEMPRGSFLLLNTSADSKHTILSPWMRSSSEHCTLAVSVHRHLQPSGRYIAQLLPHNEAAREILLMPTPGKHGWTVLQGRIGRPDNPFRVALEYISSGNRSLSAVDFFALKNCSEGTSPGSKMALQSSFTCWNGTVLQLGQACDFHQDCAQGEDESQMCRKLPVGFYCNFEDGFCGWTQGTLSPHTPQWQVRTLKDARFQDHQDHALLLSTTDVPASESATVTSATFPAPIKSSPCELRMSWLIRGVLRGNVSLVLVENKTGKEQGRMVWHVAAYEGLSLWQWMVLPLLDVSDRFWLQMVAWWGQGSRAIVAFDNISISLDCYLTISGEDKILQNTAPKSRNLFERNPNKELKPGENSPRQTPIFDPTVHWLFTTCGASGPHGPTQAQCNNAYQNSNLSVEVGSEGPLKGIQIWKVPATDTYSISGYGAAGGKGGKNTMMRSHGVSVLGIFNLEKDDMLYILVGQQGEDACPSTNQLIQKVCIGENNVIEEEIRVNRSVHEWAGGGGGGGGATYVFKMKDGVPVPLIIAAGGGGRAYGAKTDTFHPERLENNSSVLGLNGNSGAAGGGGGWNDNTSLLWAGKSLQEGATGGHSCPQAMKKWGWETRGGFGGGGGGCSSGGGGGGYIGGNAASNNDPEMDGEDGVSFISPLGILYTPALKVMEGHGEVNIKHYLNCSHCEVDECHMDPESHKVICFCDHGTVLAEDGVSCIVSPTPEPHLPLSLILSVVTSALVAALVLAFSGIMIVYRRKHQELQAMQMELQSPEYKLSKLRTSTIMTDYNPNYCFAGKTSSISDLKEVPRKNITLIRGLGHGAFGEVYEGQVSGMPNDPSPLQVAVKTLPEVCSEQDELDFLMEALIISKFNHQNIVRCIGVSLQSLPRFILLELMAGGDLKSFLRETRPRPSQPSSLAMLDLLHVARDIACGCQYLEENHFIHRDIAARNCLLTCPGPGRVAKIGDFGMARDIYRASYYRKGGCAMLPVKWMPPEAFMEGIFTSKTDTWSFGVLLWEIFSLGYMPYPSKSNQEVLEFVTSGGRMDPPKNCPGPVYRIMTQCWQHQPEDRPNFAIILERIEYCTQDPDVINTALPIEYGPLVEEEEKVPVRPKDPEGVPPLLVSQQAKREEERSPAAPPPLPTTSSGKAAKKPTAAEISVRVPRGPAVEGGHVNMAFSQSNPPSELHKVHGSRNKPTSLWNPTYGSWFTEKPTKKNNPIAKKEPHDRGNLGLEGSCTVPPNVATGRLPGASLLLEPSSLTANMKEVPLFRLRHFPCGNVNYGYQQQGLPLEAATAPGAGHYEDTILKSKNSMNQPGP
T1 sequence (P00533 25-1210): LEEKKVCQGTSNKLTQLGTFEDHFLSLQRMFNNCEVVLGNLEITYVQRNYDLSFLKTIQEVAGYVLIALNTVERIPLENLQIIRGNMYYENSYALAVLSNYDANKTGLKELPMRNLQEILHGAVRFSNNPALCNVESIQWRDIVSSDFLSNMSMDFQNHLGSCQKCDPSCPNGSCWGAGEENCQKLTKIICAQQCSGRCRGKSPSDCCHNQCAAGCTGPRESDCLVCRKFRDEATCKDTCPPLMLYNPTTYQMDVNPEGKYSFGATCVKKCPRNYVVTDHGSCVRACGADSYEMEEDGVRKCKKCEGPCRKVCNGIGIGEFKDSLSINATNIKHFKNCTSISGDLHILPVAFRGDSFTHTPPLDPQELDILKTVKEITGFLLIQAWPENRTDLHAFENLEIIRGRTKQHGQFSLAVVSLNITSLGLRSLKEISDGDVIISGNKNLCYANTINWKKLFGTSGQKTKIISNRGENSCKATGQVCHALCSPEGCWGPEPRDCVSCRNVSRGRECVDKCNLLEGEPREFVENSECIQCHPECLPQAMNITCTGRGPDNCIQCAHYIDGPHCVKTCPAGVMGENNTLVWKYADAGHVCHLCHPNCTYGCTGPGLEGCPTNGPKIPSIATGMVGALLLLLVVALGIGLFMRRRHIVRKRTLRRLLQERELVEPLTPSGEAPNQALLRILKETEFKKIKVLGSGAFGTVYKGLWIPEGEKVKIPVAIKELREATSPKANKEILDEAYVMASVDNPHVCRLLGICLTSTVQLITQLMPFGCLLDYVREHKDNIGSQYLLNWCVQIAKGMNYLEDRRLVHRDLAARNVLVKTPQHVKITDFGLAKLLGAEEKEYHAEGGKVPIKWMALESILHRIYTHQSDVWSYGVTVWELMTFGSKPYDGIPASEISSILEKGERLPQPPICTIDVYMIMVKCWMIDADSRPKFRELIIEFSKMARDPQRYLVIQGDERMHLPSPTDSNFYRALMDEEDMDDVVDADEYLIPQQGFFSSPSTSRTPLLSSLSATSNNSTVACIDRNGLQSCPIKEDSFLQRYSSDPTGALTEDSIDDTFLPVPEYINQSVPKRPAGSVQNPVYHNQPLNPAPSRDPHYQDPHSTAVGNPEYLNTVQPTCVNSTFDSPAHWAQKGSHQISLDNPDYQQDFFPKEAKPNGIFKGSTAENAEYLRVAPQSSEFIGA

Take `Cc1cc(Nc2ncc(Cl)c(Nc3ccccc3S(=O)(=O)C(C)C)n2)c(OC(C)C)cc1C1CCNCC1` [LDK378, 5-chloro-N^2-(2-isopropoxy-5-methyl-4-(piperidin-4-yl)phenyl)-N^4-[2-(propane-2-sulfonyl)-phenyl]-pyrimidine-2,4-diamine]: the “STING ligand-induced IFNβ mRNA expression” value in [1], in data set [8] and in data set [10] was “attenuation” throughout. Moreover, the cell viability entry in data set [2], in data set [9] and in [11] was “did not affect cell viability” in each case. Moreover, the “3′3′-cGAMP-induced p-TBK1” value in data set [3] (3′3′-cGAMP 10 μg/ml, three to 16 hours) is “time-dependently reduced”. Also, the “3′3′-cGAMP-, c-di-AMP-, and DMXAA-induced p-IRF3 and p-p65” value in data set [3] (ligand 10 μg/ml) is on record as “inhibited”. Also, the “c-di-AMP- or DMXAA-induced p-TBK1” value in data set [3] (ligand 10 μg/ml, 16 hours) is recorded as “inhibited”. In data set [4], the “interaction between ALK and EGFR” value is on record as “reduced”. Further, in [5] (B6 mice, CLP 22-gauge needle, LDK378 20 mg/kg, intraperitoneally (i.p.), 2, 24, 48, and 72 hours after CLP, 20 mg/kg), the “CLP-induced lethality (animal death)” value is reported as “conferred protection against lethality; also recorded: conferred significant protection; also recorded: prevented”. In data set [5] (CLP 17 G needle, STING-deficient mice), the “protection of STING-deficient mice in high-grade sepsis” value is “conferred further protection”. The “organ dysfunction by serum tissue enzymes (CK, AMYL, BUN, ALT)” value in data set [5] (CLP 22-gauge needle, LDK378 20 mg/kg, day 2-7) is on record as “protective effects”. Besides, the “CLP-induced TNFα, IFNβ, MCP1, and IL-7 mRNA expression” value in data set [5] (CLP 22-gauge needle, LDK378 20 mg/kg, day 3) is “reduced”. In addition, in [5] (CLP 22-gauge needle, LDK378 20 mg/kg, day 3, 20 mg/kg), the “CLP-induced tissue injury (H&E; lung, small intestine, other tissues)” value is “reduced injury; also recorded: prevented”. Besides, in [5] (CLP 22-gauge needle, serum, day 3), the “top five downregulated circulating immune chemical mediators compared with control group” value was “IL-10, serpin E1, serpin F1, TIM-1, and CXCL2”. Besides, the “animal survival in low-, middle-, and high-grade sepsis models” value in data set [5] (CLP with 27 G, 22 G, 17 G needles, B6 mice) is recorded as “prolonged animal survival”. For the same molecule, the “CLP-induced cytokine systemic release and accumulation in the serum” value in data set [5] (serum antibody array, CLP 22-gauge needle, LDK378 20 mg/kg, day 3) was “reduced”. Moreover, in data set [6], the “3′3′-cGAMP-induced IFNβ release” value was “confirmed their inhibitory properties”. In addition, in [7], the “IFNβ release induced by STING ligands” value was “inhibited”.

Source of the values: patent publication US11179412B2, “Methods of treating conditions involving elevated inflammatory response” (University of Pittsburgh—Of the Commonwealth System of …, priority 2017, dated 2021).
